Experimental data as given in patent publication US20030207877A1, “Pyridoquinoxaline antivirals” (priority 2001, published 2003).
Several values for one entry are separate records, joined by “and”; a condition that tells them apart may be missing. Identical values can stand only once.

Key:
Alpha Polymerase = biological target: T1, Alpha Polymerase (Homo sapiens, UniProt P09884); assay: Alpha polymerase inhibition (selectivity); format: biochemical
T1 sequence (P09884 1-1462): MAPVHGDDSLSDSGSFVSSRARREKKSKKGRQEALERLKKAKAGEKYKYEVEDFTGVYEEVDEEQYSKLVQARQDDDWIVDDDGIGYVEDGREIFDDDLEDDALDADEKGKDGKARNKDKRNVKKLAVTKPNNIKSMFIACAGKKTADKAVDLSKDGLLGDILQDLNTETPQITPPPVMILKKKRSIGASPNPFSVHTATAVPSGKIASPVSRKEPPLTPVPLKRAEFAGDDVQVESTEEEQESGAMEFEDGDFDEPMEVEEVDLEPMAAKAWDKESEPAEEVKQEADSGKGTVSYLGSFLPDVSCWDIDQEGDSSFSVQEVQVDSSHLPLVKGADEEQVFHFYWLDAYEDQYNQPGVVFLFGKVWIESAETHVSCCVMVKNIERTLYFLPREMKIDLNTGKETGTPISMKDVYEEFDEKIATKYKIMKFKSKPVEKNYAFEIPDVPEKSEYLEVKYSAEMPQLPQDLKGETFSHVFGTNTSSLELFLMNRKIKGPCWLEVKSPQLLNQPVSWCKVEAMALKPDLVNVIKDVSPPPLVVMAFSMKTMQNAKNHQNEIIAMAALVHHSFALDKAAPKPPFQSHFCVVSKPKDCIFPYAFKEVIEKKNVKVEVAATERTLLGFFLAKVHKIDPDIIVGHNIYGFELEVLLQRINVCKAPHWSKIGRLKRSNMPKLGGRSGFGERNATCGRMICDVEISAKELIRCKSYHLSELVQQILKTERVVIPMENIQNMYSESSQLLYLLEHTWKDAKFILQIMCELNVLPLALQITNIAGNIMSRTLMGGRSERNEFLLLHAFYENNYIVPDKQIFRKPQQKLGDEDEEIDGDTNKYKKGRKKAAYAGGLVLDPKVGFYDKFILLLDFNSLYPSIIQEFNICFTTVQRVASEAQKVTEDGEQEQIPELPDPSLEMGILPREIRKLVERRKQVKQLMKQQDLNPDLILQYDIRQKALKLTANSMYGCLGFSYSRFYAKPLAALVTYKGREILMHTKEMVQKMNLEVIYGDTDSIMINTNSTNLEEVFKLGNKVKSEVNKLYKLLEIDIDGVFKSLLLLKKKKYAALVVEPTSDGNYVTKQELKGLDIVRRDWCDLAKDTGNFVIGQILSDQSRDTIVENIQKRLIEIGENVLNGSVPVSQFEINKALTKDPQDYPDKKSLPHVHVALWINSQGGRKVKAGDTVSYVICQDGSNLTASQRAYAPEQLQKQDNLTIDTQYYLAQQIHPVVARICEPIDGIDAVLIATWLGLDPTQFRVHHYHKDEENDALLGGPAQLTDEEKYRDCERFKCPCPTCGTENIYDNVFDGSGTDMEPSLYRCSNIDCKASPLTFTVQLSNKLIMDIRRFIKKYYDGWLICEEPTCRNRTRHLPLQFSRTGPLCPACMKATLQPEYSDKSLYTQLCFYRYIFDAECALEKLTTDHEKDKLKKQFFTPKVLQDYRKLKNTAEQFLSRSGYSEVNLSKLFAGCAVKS

HCMV polymerase = biological target: T2, HCMV polymerase (Human cytomegalovirus, UniProt P08546); assay: HCMV polymerase assay (scintillation proximity assay), original and modified version; format: biochemical; conditions: SPA; several values per example = repeat determinations, assay version not given; read-out: CMV Polymerase IC50
T2 construct: made in house; host or cells: SF-9 insect cells infected with recombinant baculovirus
T2 sequence (P08546 whole entry): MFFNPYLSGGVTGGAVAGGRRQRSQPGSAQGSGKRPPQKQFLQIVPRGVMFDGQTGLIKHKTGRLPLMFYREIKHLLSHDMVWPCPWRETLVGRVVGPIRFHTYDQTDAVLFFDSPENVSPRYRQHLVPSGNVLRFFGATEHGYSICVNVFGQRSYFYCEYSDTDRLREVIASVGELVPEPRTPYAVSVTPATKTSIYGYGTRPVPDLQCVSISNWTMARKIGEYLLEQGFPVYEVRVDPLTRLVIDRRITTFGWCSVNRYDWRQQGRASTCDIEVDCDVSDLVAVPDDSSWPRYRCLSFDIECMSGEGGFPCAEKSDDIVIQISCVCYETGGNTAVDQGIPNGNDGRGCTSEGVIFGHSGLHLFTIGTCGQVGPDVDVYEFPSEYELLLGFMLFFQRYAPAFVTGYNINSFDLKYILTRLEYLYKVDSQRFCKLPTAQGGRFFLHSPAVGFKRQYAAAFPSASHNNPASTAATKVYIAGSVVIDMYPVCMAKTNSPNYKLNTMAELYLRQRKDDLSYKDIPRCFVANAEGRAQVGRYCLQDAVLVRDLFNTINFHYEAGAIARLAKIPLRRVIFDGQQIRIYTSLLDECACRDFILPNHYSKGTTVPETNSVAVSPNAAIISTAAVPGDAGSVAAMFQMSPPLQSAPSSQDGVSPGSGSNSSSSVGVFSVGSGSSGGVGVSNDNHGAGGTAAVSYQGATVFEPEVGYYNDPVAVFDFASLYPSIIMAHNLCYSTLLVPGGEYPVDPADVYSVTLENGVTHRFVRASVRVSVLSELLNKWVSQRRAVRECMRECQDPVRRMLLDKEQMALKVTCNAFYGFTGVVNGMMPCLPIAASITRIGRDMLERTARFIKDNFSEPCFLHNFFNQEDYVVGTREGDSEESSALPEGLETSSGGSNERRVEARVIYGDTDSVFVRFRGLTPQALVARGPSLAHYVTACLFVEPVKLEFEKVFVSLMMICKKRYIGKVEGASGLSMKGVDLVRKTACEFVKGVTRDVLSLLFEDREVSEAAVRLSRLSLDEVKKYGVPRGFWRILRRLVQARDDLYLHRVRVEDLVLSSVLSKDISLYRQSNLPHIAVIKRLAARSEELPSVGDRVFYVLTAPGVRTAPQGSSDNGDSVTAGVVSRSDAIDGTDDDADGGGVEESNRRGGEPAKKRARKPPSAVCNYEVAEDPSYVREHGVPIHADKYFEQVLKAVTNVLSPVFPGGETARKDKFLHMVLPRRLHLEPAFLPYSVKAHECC
Procedure: The HCMV polymerase assay is performed using a scintillation proximity assay (SPA) as described in several references, such as N.D. Cook, et al., Pharmaceutical Manufacturing International, pages 49-53 (1992); K. Takeuchi, Laboratory Practice, September issue (1992); U.S. Pat. No. 4,568,649 (1986); which are incorporated by reference herein. Reactions are performed in 96-well plates. The assay is conducted in 100 μl volume with 5.4 mM HEPES (pH 7.5), 11.7 MM KCl, 4.5 mM MgCl2, 0.36 mg/ml BSA, and 90 nM ^3H-dTTP. Assays are run with and without CHAPS, (3-[(3-Cholamidopropyl)-dimethylammoniol-1-propane-sulfonate) at a final concentration of 2 mM. HCMV polymerase is diluted in enzyme dilution buffer containing 50% glycerol, 250 mM NaCl, 10 mM HEPES (pH 7.5), 100 μg/ml BSA, and 0.01% sodium azide. The HCMV polymerase, which is expressed in recombinant baculovirus-infected SF-9 cells and purified according to literature procedures, is added at 10% (or 10 μl) of the final reaction volume, i.e., 100 μl. Compounds are diluted in 50% DMSO and 10 μl are added to each well. Control wells contain an equivalent concentration of DMSO. Unless noted otherwise, reactions are initiated via the addition of 6 nM biotinylated poly(dA)-oligo(dT) template/primer to reaction mixtures containing the enzyme, substrate, and compounds of interest. Plates are incubated in a 25° C. or 37° C. H2O bath and terminated via the addition of 40 μl/reaction of 0.5 M EDTA (pH 8) per well. Reactions are terminated within the time-frame during which substrate incorporation is linear and varied depending upon the enzyme and conditions used, i.e., 30 min. for HCMV polymerase. Ten (10) μl of streptavidin-SPA beads (20 mg/ml in PBS/10% glycerol) are added following termination of the reaction. Plates are incubated 10 min. at 37° C., then equilibrated to room temperature, and counted on a Packard Topcount. Linear regressions are performed and IC50's are calculated using computer software.
A modified version of the above HCMV polymerase assay is performed as described above, but with the following changes: Compounds are diluted in 100% DMSO until final dilution into assay buffer. In the previous assay, compounds are diluted in 50% DMSO. 4.5 mM dithiotherotol (DTT) is added to the polymerase buffer.

Row | melting point | IC50 (Alpha Polymerase) | IC50 (HCMV polymerase) | SMILES
1 | 173 to 177 °C | > 20000 nM | 48 nM and 36 nM | CN(Cc1cc2c3c(c1)c(=O)c(C(=O)NCc1ccc(Cl)cc1)cn3CC(=O)N2C)CC(O)c1ccc2ccccc2n1 (racemic) [Example 16, rac N-(4-chlorobenzyl)-9-{([2-hydroxy-2-quinolin-2-ylethyl](methyl)amino)methyl 1-1-methyl-2,7-dioxo-2,3-dihydro-1H,7H-pyrido[1,2,3-de]quinoxaline-6-carboxamide]
2 | 161 to 163 °C | 4390 nM | 32 nM | CN(Cc1cc2c3c(c1)c(=O)c(C(=O)NCc1ccc(F)cc1)cn3CC(=O)N2C)CC(O)c1cc2ccccc2o1 (racemic) [Example 33, rac 9-{[[2-(1-benzofuran-2-yl)-2-hydroxyethyl](methyl)amino]methyl}-N-(4-fluorobenzyl)-1-methyl-2,7-dioxo-2,3-dihydro-1H,7H-pyrido[1,2,3-de]quinoxaline-6-carboxamide]
3 | 119 to 120 °C | > 20000 nM | 110 nM and 46 nM | CN(Cc1cc2c3c(c1)c(=O)c(C(=O)NCc1ccc(Cl)cc1)cn3CC(=O)N2C)C[C@@H](O)c1ccco1 [Example 11, N-(4-chlorobenzyl)-9-{[[(2R)-2-(2-furyl)-2-hydroxyethyl](methyl)amino]methyl}-1-methyl-2,7-dioxo-2,3-dihydro-1H,7H-pyrido[1,2,3-de]quinoxaline-6-carboxamide]
4 | 131 to 135 °C | > 20000 nM | 150 nM and 76 nM | CN(Cc1cc2c3c(c1)c(=O)c(C(=O)NCc1ccc(Cl)cc1)cn3CC(=O)N2C)C[C@@H](O)c1cccnc1 [Example 13, N-(4-chlorobenzyl)-9-{[[(2S)-2-hydroxy-2-pyridin-3-ylethyl](methyl)amino]methyl}-1-methyl-2,7-dioxo-2,3-dihydro-1H,7H-pyrido[1,2,3-de]quinoxaline-6-carboxamide]
5 | 97 to 98 °C | > 10000 nM | 160 nM and 120 nM | CN(Cc1cc2c3c(c1)c(=O)c(C(=O)NCc1ccc(Cl)cc1)cn3CC(=O)N2C)C[C@@H](O)c1cnccn1 [Example 21, N-(4-chlorobenzyl)-9-{[[(2R)-2-hydroxy-2-pyrazin-2-ylethyl](methyl)amino]methyl}-1-methyl-2,7-dioxo-2,3-dihydro-1H,7H-pyrido[1,2,3-de]quinoxaline-6-carboxamide]
